Test results: paper PMC9731865, “Gambogic acid and juglone inhibit RNase P through distinct mechanisms” (The Journal of Biological Chemistry, 2022)
“And” between values parts separate entries of the source, which are not always exact repeats. Equal entries are not always repeated. Where two headings read alike, the source gives them in different places.

Assays:
PRORP1 = biological target: T1, PRORP1 (Arabidopsis thaliana, UniProt Q66GI4); assay: Mode of inhibition of gambogic acid, PRORP1 activity at varying pre-tRNA and inhibitor; type: biochemical, A. thaliana
T1 construct: made in house
T1 sequence (Q66GI4 77-572): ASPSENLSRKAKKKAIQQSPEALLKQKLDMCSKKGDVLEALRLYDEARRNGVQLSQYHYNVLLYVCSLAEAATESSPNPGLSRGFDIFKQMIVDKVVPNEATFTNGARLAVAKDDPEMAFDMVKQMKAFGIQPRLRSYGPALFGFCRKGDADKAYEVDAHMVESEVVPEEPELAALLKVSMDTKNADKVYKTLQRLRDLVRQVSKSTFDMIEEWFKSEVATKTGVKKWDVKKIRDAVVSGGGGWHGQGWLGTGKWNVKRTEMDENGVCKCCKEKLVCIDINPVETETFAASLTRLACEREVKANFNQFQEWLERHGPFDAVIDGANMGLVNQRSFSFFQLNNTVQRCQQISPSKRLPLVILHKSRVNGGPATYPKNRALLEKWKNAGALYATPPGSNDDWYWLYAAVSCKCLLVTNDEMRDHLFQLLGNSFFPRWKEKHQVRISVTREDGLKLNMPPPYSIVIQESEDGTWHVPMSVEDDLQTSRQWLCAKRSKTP
Method: Equation 2 was fit to each data set to calculate the values of kcat,app, and KM,app, and (kcat/KM)app. […] The dotted line simulates the fit of Equation 3 with n = 1. C, kcat/KM,app values for PRORP1 activity vary little as a function of the gambogic acid concentration. Error bars indicate standard errors obtained from fitting the data.
To identify the mode of inhibition of gambogic acid, PRORP1 activity was measured with varying pre-tRNA and gambogic acid concentrations. The Michaelis–Menten equation (Equation 2) was fit to each curve individually to calculate the apparent turnover rate constant (kcat,app) and apparent substrate concentration at half maximal activity (KM,app). […] (3) kcat,app=kcat/1+([I]/KI)^n (4) KM,app=KM/1+([I]/KI)^n

B. subtilis RNase P = B. subtilis RNase P activity assay (FP, real-time); type: biochemical; details: ratio of IC50 values
Method: Figure 4 Gambogic acid and juglone inhibit A. thaliana PRORP1 (green), human MRPP1/2/3 (red), and B. subtilis RNase P (blue). Compounds gambogic acid (A) and juglone (B) were incubated with enzyme at double the reaction concentration for 30 min prior to the addition of an equal volume of substrate to initiate the reaction. PRORP1 reactions (shown in green) were performed with 0.3 nM PRORP1 and 800 nM pre-tRNA containing 40 nM Fl-pre-tRNA at 25 °C in 30 mM MOPS pH 7.8, 5 mM MgCl2, 100 mM NaCl, 1 mM TCEP, 500 nM (12 μg/ml) yeast tRNA, 5 mM spermidine, 6.65 μg/ml BSA, and 0.01% NP-40. MRPP1/2/3 reactions (shown in red) were performed using 50 nM MRPP3, 500 nM MRPP1/2, 500 nM pre-tRNA containing 40 nM Fl-pre-tRNA at 37 °C in 50 mM MOPS (pH 7.8), 1 mM TCEP, 4.5 mM MgCl2, and 100 mM NaCl. B. subtilis RNase P reactions (shown in blue) were performed using 20 nM RNase P and 500 nM pre-tRNA containing 40 nM Fl-pre-tRNA at 37 °C in 50 mM Tris, pH 7.2, 5 mM MgCl2, 100 mM KCl, 500 nM (12 μg/ml) yeast tRNA, 20 mM dithiothreitol (DTT), 10 mM spermidine, and 0.01% NP-40. Equation 1 was fit to each dataset.
The inhibition of B. subtilis RNase P activity by gambogic acid and juglone was measured using a previously developed FP assay in real-time.^25 Reactions were performed under multiple turnover conditions using 20 nM RNase P and 500 nM Fl-pre-tRNA^Asp in 50 mM Tris (pH 7.2), 5 mM MgCl2, 100 mM KCl, 500 nM (12 μg/ml) yeast tRNA^mix, 20 mM dithiothreitol, 10 mM spermidine, and 0.01% NP-40 at 37 °C.

T. maritima RNase P = biological target: T. maritima RNase P; set-up: method as in PMID 30997498; details: cited from earlier work

| Structure (SMILES) | Hill coefficient (n), fit of Equation 3 (PRORP1; dependence of kcat,app on gambogic acid concentration) | Ki (PRORP1; global fit, read-out: KI, global fit analysis (Equations 2, 3, 4)) [nM] | mode of inhibition of PRORP1 (PRORP1; kcat,app decreases, (kcat/KM)app unchanged) | Ki (PRORP1; uncompetitive model, gambogic acid 0-1.6 μM, read-out: inhibition constant (KI), fit of Equation 3 to kcat,app) [nM] | fold less potent against B. subtilis RNP RNase P than against PRORP1 and MRPP1/2/3 (B. subtilis RNase P) | fold less potent against B. subtilis RNP RNase P than against PRORP1 and MRPP1/2/3 (B. subtilis RNase P; listed as Gambogic acid) | IC50 (T. maritima RNase P) [nM] |
| --- | --- | --- | --- | --- | --- | --- | --- |
| CC(C)=CCC[C@]1(C)C=Cc2c(O)c3c(c(CC=C(C)C)c2O1)O[C@]12C(=C[C@@H]4C[C@H]1C(C)(C)O[C@@]2(C/C=C(/C)C(=O)O)C4=O)C3=O [gambogic acid] | 4 and 3.8 ± 0.8 | 1100 ± 30 | uncompetitive inhibitor | 1080 ± 50 | at least 50 fold | more than 50 fold |  |
| O=C1C=CC(=O)c2c(O)cccc21 [juglone, 5-hydroxy-1,4-naphthalenedione] |  |  |  |  |  |  | 12800 |
